# How the values were obtained:
# human = details: cited from earlier work
# rats = details: rat, in vivo; cited from earlier work
# male Sprague-Dawley rats = test: animal or person; type: in vivo, rat; details: sc
compound,measurement,setting,value
Oc1ccc2c(c1)[C@@]13CCCC[C@@]1(O)[C@@H](C2)N(CC1CCC1)CC3 [butorphanol],effective human dose,human,2 mg
"Oc1ccc2c3c1O[C@H]1c4[nH]c5c(c4C[C@@]4(O)[C@@H](C2)N(CC2CC2)CC[C@]314)C[C@@]1(O)[C@H]2Cc3ccc(O)c4c3[C@@]1(CCN2CC1CC1)[C@H]5O4 [n-BNI, nor-binaltorphimine]","M.P.E. (maximal percent effect, antinociception)",rats,1.0%
CN1CC[C@]23c4c5ccc(O)c4O[C@H]2C(=O)CC[C@@]3(O)[C@H]1C5 [oxymorphone],ED50,"male Sprague-Dawley rats; Rattus norvegicus, read-out: ED50 (M.P.E.=50%)",0.078 mg/kg
same,"peak effect, time post injection","male Sprague-Dawley rats; rat, in vivo",30 min
"COC(=O)/C=C/C(=O)N[C@@H]1CC[C@@]2(O)[C@H]3Cc4ccc(O)c5c4[C@@]2(CCN3CC2CC2)[C@H]1O5 [β-FNA, beta-funaltrexamine]","M.P.E. (maximal percent effect, antinociception)",rats,1.0%
